Data as given in publication PMC10535717, “A Novel Antimicrobial Peptide, Dermaseptin-SS1, with Anti-Proliferative Activity, Isolated from the Skin Secretion of Phyllomedusa tarsius” (Molecules, 2023).
Ends that are not written are not given here.

Key:
[1] = system: S. aureus ATCC CRM 6538; format: cell-based, Staphylococcus aureus
Text: (§1) The anti-planktonic microorganism efficacy of the peptides was investigated via minimal bacterial inhibitory concentration (MIC) and minimal bactericidal concentration (MBC) assays. Eight types of microorganisms, including Gram-positive bacteria, Staphylococcus aureus (ATCC CRM 6538), Methicillin-resistant Staphylococcus aureus (NCTC 12493), and Enterococcus faecium (NCTC 12697), Gram-negative bacteria, Escherichia coli (ATCC CRM 8739, ATCC BAA 2340, ATCC 13846, ATCC BAA 2469, and ATCC BAA 2471), Klebsiella pneumoniae (ATCC 43816), Pseudomonas aeruginosa (ATCC CRM 9027) and Acinetobacter baumannii (ATCC BAA 747) and a yeast, Candida albicans (ATCC CRM 10231) were utilized to test the antimicrobial activity of peptides.
(§2) For the MIC assay, microorganisms were inoculated with peptides in a 96-well plate. Nutrient broth (NB) was applied for MRSA, E. coli, K. pneumoniae, and P. aeruginosa, tryptic soy broth (TSB) was applied for S. aureus, E. faecium, and A. baumannii, and yeast extract peptone dextrose broth (YPD-B) was used for C. albicans. The microorganisms were cultured (bacteria: 37 °C; yeast: 26 °C) overnight at 120 rpm and subcultured to achieve the logarithmic growth stage (5 × 10^5 CFU/mL), as confirmed by viable cell counts. After that, 99 µL of the subculture and 1 µL of the peptide were added to the 96-well plate. The final concentration of peptides ranged from 128 to 1 µmol/L (µM) using a 2-fold dilution. In addition, four other groups were established simultaneously at the commencement of the test: a growth control group, a vehicle control group (Dimethyl Sulphoxide, DMSO), a positive control group utilizing Norfloxacin at a concentration of 2 mg/mL for bacteria, and Amphotericin B. at a concentration of 1 mg/mL for yeast, and a blank control group (sterile NB/TSB/YPD-B). The MIC values were measured after overnight incubation at 37/26 °C. The optical density (OD) values were analysed at 550 nm using a Synergy HT plate reader (BioTek, Washington, USA), and were calculated using the following equation:(1) Cell Viability %=[(As−A0)/(Ag−A0)]×100% where As is the absorbance value of the sample group, A0 is the average of the absorbance values of the blank control, and Ag is the average of the absorbance values of the growth control. For the MBC assay, 10 µL of the inhibited cultures on the 96-well plate were transferred onto a corresponding medium agar plate and incubated overnight at 37/26 °C to measure MBC values. The results were obtained from three independent assays.

[2] = system: MRSA NCTC 12493; format: cell-based, Methicillin-resistant Staphylococcus aureus
Text: as §1, §2

[3] = system: E. faecalis NCTC 12697; format: cell-based
[4] = system: E. coli ATCC CRM 8739; format: cell-based, Escherichia coli
Text: as §1, §2

[5] = system: K. pneumoniae ATCC 43816; format: cell-based, Klebsiella pneumoniae
Text: as §1, §2

[6] = system: P. aeruginosa ATCC CRM 9027; format: cell-based, Pseudomonas aeruginosa
Text: as §1, §2

[7] = system: A. baumannii ATCC BAA 747; format: cell-based, Acinetobacter baumannii
Text: as §1, §2

[8] = system: C. albicans ATCC CRM 10231; format: cell-based, Candida albicans; conditions: ATCC CRM 10231
Text: as §1, §2

[9] = system: horse erythrocytes; test: Haemolysis activity; format: cell-based; conditions: concentration causing 50% haemolysis; 4% (v/v) horse red blood cells in PBS, peptide 128 to 1 µM, 37 °C 2 h, OD 570 nm, 1% Triton X-100 positive control, three separate assays
Procedure: To start, fresh defibrinated horse blood (TCS Biosciences Ltd., Buckingham, UK) was washed with PBS solution to obtain a clear supernatant. Then, a 4% (v/v) suspension of red blood cells was made in PBS. After this, 100 µL of the peptide solutions were incubated with 100 µL of the suspension of red blood cells in 2 mL centrifuge tubes at 37 °C for 2 h. The ultimate concentration of peptides ranged from 128 to 1 µM obtained by a 2-fold dilution. Also, two other groups were set simultaneously, including a positive control group of 1% Triton X-100 and a blank control group of phosphate-buffered saline (PBS). After incubation and centrifugation at 900× g for 10 min, a volume of 100 µL of the resulting supernatant from each specimen was carefully transferred to individual wells of the 96-well plate. Subsequently, the OD values were analysed using a Synergy HT plate reader (BioTek, USA) at a wavelength of 570 nm using the following equation:(2) Haemolysis Activity %=[(As−A0)/(Ap−A0)]×100% where As is the absorbance value of the supernatant of the peptide group, A0 is the average absorbance value of the blank control, and Ap is the average absorbance value of the positive control. The data were obtained from three separate assays.

[10] = system: E. coli ATCC BAA 2340; format: cell-based, Escherichia coli; conditions: KPC strain, overnight 37 °C, three independent assays; for MIC: NB, 5 × 10^5 CFU/mL, OD 550 nm; for MBC: agar plate
Text: as §1, §2

[11] = system: E. coli ATCC BAA 2469; format: cell-based, Escherichia coli; conditions: NDM-1 strain, overnight 37 °C, three independent assays; for MIC: NB, 5 × 10^5 CFU/mL, OD 550 nm; for MBC: agar plate
Text: as §1, §2

[12] = system: E. coli ATCC BAA 2471; format: cell-based, Escherichia coli; conditions: NDM-1 strain, overnight 37 °C, three independent assays; for MIC: NB, 5 × 10^5 CFU/mL, OD 550 nm; for MBC: agar plate
Text: as §1, §2

[13] = system: E. coli NCTC 13846; format: cell-based, Escherichia coli
Text: as §1, §2

[14] = Log P of the amino acid as quoted in the discussion; source and method not given; cited from earlier work
Text: The predicted information from HeliQuest referred to the design of analogues (Figure 2). The first modification step was designed to increase hydrophobic characteristics and decrease helicity. […] The ...

Row | Molecule | MBC [1] | MIC [1] | MBC [2] | MIC [2] | MBC [3] | MIC [3] | MBC [4] | MIC [4] | MBC [5] | MIC [5] | MBC [6] | MIC [6] | MBC [7] | MIC [7] | MBC [8] | MIC [8] | HC50 [9] | Log P [14] | also measured
1 | ALWKSILKNAGKAGLNEINQIVQ-NH2 [Peptide 14G] | >128 µM | >128 µM | >128 µM | >128 µM | >128 µM | >128 µM | 16 µM | 16 µM | >128 µM | >128 µM | > 128 µM | 32 µM | >128 µM | >128 µM | >128 µM | >128 µM | 256.00 |  | 
2 | ALWKSILKNAGKAALNEINQIVQ-NH2 [SS1] | 8 µM | 8 µM | >128 µM | >128 µM | >128 µM | >128 µM | 4 µM | 2 µM | 16 µM | 16 µM | 32 µM | 32 µM | 16 µM | 16 µM | >128 µM | >128 µM | 256.00 µM |  | MIC [10]: 4 µM; MBC [10]: 4 µM; MIC [11]: 4 µM; MBC [11]: 4 µM; MIC [12]: 8 µM; MBC [12]: 8 µM; MBC [13]: 8 µM; MIC [13]: 8 µM
3 | NC(=O)CC[C@H](N)C(=O)O [Glutamine] |  |  |  |  |  |  |  |  |  |  |  |  |  |  |  |  |  | 3.19 | 
4 | N[C@@H](CO)C(=O)O [serine] |  |  |  |  |  |  |  |  |  |  |  |  |  |  |  |  |  | 2.66 | 
5 | CC(C)[C@H](N)C(=O)O [Valine] |  |  |  |  |  |  |  |  |  |  |  |  |  |  |  |  |  | 4.42 | 
6 | NCC(=O)O [Glycine] |  |  |  |  |  |  |  |  |  |  |  |  |  |  |  |  |  | 3.20 | 
7 | ALWKSILKNAGKAVLNEINQIV-NH2 [Peptide 14VL23] | >128 µM | >128 µM | >128 µM | >128 µM | >128 µM | >128 µM | 16 µM | 8 µM | 4 µM | 4 µM | >128 µM | >128 µM | >128 µM | >128 µM | >128 µM | >128 µM | 256.00 |  | 
8 | ALWKKILKNAGKAVLNEINQIVQ-NH2 [Peptide 14V5K] | 4 µM | 4 µM | 4 µM | 4 µM | >128 µM | >128 µM | 2 µM | 2 µM | 2 µM | 2 µM | 8 µM | 8 µM | 8 µM | 8 µM | 8 µM | 8 µM | 256.00 |  | MIC [10]: 2 µM; MBC [10]: 2 µM; MIC [11]: 1 µM; MBC [11]: 2 µM; MIC [12]: 1 µM; MBC [12]: 2 µM; MBC [13]: 4 µM; MIC [13]: 4 µM; time to eradicate bacteria: < 10 min
9 | C[C@H](N)C(=O)O [Alanine] |  |  |  |  |  |  |  |  |  |  |  |  |  |  |  |  |  | 3.54 | 
10 | ALWKSILKNAGKALNEINQIVQ-NH2 [Peptide L14] | >128 µM | >128 µM | 32 µM | 32 µM | >128 µM | >128 µM | 4 µM | 4 µM | 16 µM | 16 µM | > 128 µM | 16 µM | > 128 µM | 32 µM | >128 µM | >128 µM | 256.00 |  | 
11 | ALWKSILKNAGKAVLNEINQIVQ-NH2 [Peptide 14V] | 4 µM | 4 µM | 8 µM | 8 µM | >128 µM | >128 µM | 2 µM | 2 µM | 8 µM | 8 µM | > 128 µM | 16 µM | 4 µM | 4 µM | >128 µM | >128 µM | 256.00 |  | 
